# Data: patent publication US20160340656A1, “PEPTIDES DERIVED FROM GSE 24.2 FOR TREATING DISEASES CAUSED BY OXIDATIVE STRESS AND DAMAGE TO DNA” (CONSEJO SUPERIOR DE INVESTIGACIONES CIENTÍFICAS (CSIC), priority 2013, published 2016)
# Tests used:
# Format in all cases: cell-based, human
# IL6 = test: Expression of proinflammatory cytokine IL6 in AT719-P cells; conditions: relative to β-actin
# Procedure: FIG. 12. Levels of expression of proinflammatory cytokines in ataxia telangiectasia cells after expressing peptides GSE24.2 and GSE4. AT719-P AT cells were infected with a lentiviral vector expressing GSE24.2, GSE4 or a GFP empty vector and three weeks later the RNA was extracted and after obtaining the corresponding cDNA, the levels of expression of the proinflammatory cytokines IL6 and IL8 were determined. AT736C cells were used as a control. The levels of expression of the gene β-actin were measured as control of expression. The results are expressed as the relative increase in the number of times of expression of each of the genes compared to β-actin, considering the levels of expression of AT736C cells as 1.
# As the peptide denominated GSE4 was smaller than the peptides with ability to repair telomerase activity, we studied if it had the same activity as peptide GSE24.2 for attenuating oxidative stress, expression of proinflammatory cytokines and repairing the senescence in ataxia telangiectasia cells. […] Finally, given that the increase in expression of the interleukins IL6 and IL8 are associated with a secretory phenotype linked to senescence in ataxia telangiectasia, we evaluated the ability of both peptides GSE24.2 and GSE4 to reduce senescence by evaluating senescence-associated β-galactosidase activity (SA-beta-Gal) (FIG. 13).
# [1] = test system: p38 MAP kinase (phosphorylated on Thr180/Try182) in AT719 cells; test: Levels of phosphorylated p38 by Western blot in AT cells; conditions: three weeks after infection, control AT736 = 1
# Description: FIG. 4. Determination of the levels of phosphorylation of p38 in AT cells: AT719-P AT cells were infected with a lentiviral vector expressing GSE24.2 or a GFP empty vector and three weeks later protein extracts were obtained. AT719-P AT cells infected with GSE24.2 were also used and the population with the maximum fluorescence was selected using a sorter (AT AT719-P GSE24.2 sorter). AT736C cells were used as a control. The proteins were resolved on polyacrylamide gels and transferred to nitrocellulose membranes. The membrane was hybridised with a polyclonal antibody against the protein p38 phosphorylated on Thr180/Try182 and non-phosphoryated protein as a loading control. The relative values between the phosphorylated and non-phosphorylated proteins obtained (using the NIH-Image program) for the control cell line were considered as 1 and the others referred to it.
# One of the characteristics of AT patient cells is a higher activation of p38 MAP kinase due to the failure of function of the ATM protein. This increase in activation of p38 triggers the process of cell death in AT cells and therefore a reduction in the number of neuronal cells. […] The signal obtained in both hybridisations was quantified with the NIH-Image program and relative values between the phosphorylated and non-phosphorylated proteins obtained for the control cell line were considered as 1.
# AT719 cells = test: Viability (MTS) in response to bleomycin in AT cells; conditions: increasing concentrations of bleomycin, 72 hours, versus AT736C control
# Procedure: FIG. 5. Determination of the viability in response to bleomycin in AT cells: AT719-P AT cells were infected with a lentiviral vector expressing GSE24.2 or a GFP empty vector and three weeks later they were treated with different doses of bleomycin. AT736C cells were used as a control. The cells were fixed after 72 hours of treatment and viability determined with the MTS reagent. The values represent the result of the test performed in triplicate and express the viability with respect to untreated cells.
# Mutations in gene ATM sensitise cells of AT patients to treatment with ionizing radiation or radiomimetic drugs such as bleomycin. In order to verify if the protective effect induced by GSE24.2 in cells of AT patients also extends to radiomimetic agents, AT719 patient cells expressing pCMV-GFP-GSE24.2 or an empty vector expressing only GFP (GFP) were treated with increasing concentrations of bleomycin for 72 hours. After this time, cell viability was evaluated using MTS reagent. AT736C cells were used as a control.
sequence,measurement,setting,value
GFINLDKPSNP [GSE4],reduction of levels of expression of IL6,IL6,80%
GFINLDKPSNPSSHEVVAWIRRILRVEKTGHSGTLDPKVTGCLIVCIERATRLVK (GSE24.2; listed as Homo sapiens) [55-amino-acid peptide corresponding to the protein dyskerin; known from WO2007/090911],phosphorylated / non-phosphorylated p38 relative value,[1],reduced significantly to levels similar to control cells
same,viability after bleomycin,AT719 cells,able to increase viability of AT719 cells to levels similar to control cells
